Measured values: publication PMC6511943, “Structure-Guided Drug Design of 6-Substituted Adenosine Analogues as Potent Inhibitors of Mycobacterium tuberculosis Adenosine Kinase” (Journal of Medicinal Chemistry, 2019)
≈ marks a conversion by molar mass, not a printed value.

Experiments:
[1] = molecular target: T1, MtbAdoK (Mycobacterium tuberculosis, UniProt P9WID5); settings: read-out: Km for adenosine, previously reported values; cited from earlier work
[2] = system: Mtb H37Rv WT; assay: microbe, parasite or virus in culture; assay type: cell-based; settings: Mycobacterium tuberculosis
[3] = system: Mtb mc^2 7000; assay: Antimycobacterial assay (MABA); assay type: cell-based; settings: Mycobacterium tuberculosis, Mtb mc^2 7000, MABA, 6 days + 2 days resazurin
[4] = in vitro; assay type: cell-based, human; settings: human dermal fibroblasts, 48 h + 24 h resazurin; read-out: HDF CC50
Method: (§1) HDFs were purchased from ATCC (Manassas, VA). HDF cells were cultured in DMEM (Lonza) media supplemented with 10.0% fetal bovine serum (Lonza) and penicillin/streptomycin (Lonza). For the cytotoxicity assay, compound stocks were serially diluted in phosphate-buffered saline plus 10.0% DMSO. On the day of assay, HDF cells were trypsinized, counted, and resuspended at a concentration of 64 000 cells/mL in media. Cells were plated, overlaid with the compound serial dilutions, and incubated at 37.0 °C. After 48.0 h, resazurin dye was added, and the assay plates cultured for another 24.0 h. On the next day, the absorbance of the resazurin was measured on a microplate reader to assess cell death. Cytotoxicity was determined as a percent control, and CC50 values for each compound were determined by utilizing eq 1.

[5] = molecular target: T1, MtbAdoK; assay: MtbAdoK enzymatic assay (pyruvate kinase–lactate dehydrogenase coupled), IC50 and Ki determination; assay type: biochemical
[6] = molecular target: T2, hAdoK (Homo sapiens, UniProt P55263); assay: hAdoK enzymatic assay (pyruvate kinase–lactate dehydrogenase coupled), Ki determination; assay type: biochemical
T2 construct: His-tag with Tobacco Etch Virus (TEV) cleavage site (N); made in house; host or cells: Escherichia coli BL21 (DE3)
T2 sequence (P55263 1-345 isoform P55263-2): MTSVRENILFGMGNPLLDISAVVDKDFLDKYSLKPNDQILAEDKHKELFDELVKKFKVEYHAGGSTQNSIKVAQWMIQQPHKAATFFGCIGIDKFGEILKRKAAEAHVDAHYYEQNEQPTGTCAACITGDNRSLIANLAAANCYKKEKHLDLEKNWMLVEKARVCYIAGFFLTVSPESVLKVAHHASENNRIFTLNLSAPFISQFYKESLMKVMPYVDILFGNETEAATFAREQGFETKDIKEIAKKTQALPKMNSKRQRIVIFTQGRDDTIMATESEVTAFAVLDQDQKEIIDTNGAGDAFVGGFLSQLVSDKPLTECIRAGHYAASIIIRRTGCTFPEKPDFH

[7] = in vivo; design: species or system Swiss Webster mice; settings: female, ND4 Swiss Webster, mouse, po
Method: (§2) Eight-week old female ND4 Swiss Webster mice (∼28 g each) (Envigo, Indianapolis, IN) were used for PK and combination tolerability-snapshot PK studies. Compound 18 was formulated in 5% DMSO, 95% canola oil and administered as a single 100 μL oral gavage at 10 mg·kg^–1 for PK and as a 200 μL oral gavage at 50, 100, or 200 mg·kg^–1 QD × 3 days for tolerability-snapshot PK. Mice were anesthetized using isoflurane and 50 μL collected at 0, 0.25, 0.5, 1, 2, and 4 h survival bleed times for traditional PK or 0, 1, 4, and 24 h for tolerability-snapshot PK studies after the first administered dose. Around 200 μL was collected at 6, 8, and 24 h terminal bleed times for the traditional PK. Survival bleeds were drawn from the facial vein and terminal bleeds via cardiac puncture following CO2 asphyxiation.[35] Three mice were used per time point.
Blood samples were centrifuged (3000g, 15 min) for plasma separation. Aliquots of plasma (10 μL) were extracted with two 500 μL equivalents of methanol containing 0.1% formic acid to ensure maximum recovery of compound 18 from plasma. The supernatant was collected from precipitated protein pellet following centrifugation (3000g, 5 min) and evaporated to dryness using a temperature-controlled Eppendorf Vacufuge at 30 °C for 4 h. The dry samples were reconstituted with 100 μL of methanol (1:10 original analyte dilution factor) spiked with 250 ng·mL^–1 verapamil (Sigma-Aldrich) as an internal standard and subjected to LC/MS analysis on a Bruker Daltronics micrOTOF-Q II mass spectrometer coupled with an Agilent 1200 Infinity series HPLC with temperature controlled autosampler (24 °C) and photodiode array detector. Standard solutions of compound 18 ranging from 1000 to 7.8125 ng·mL^–1 spiked into mouse control plasma was also analyzed to generate a calibration curve corrected for matrix effects. A linear regression generated from calibration samples was used to quantify samples.[34] The LOD of the LC/MS method was approximately 2 ng·mL^–1. A 4.6 × 100 mm Kinetex 2.6 μm EVO C18 100 Å column at a flow rate of 0.5 mL·min^–1 was used in the analysis. The mobile phase consisted of water containing 0.1% formic acid as solvent A and acetonitrile with 0.1% formic acid as solvent B. The gradient conditions were maintained as follows: 90% A, 10% B to 100% B in 8 min; 100% held for 4 min as a washing step; 100% B back to 90% A in 2 min; 90% A, 10% B held for 3 min to reset and equilibrate the column. Each analytical run was automatically calibrated using a secondary line injection of 10 μL of sodium acetate external standard at 13 min. The injection volume of the analyte was 10 μL, and MS was operated in positive mode with electrospray ionization at source. Mass spectra were monitored in a range of 50–1000m/z. Data were processed using DataAnalysis 4.1 and QuantAnalysis (Bruker Daltronics).

[8] = assay type: in vivo; settings: female Swiss Webster mice, single oral dose 10 mg·kg^–1
Method: as §2

[9] = system: human dermal fibroblasts (HDF); assay: in vitro; assay type: cell-based; settings: HDF cells
Method: as §1

[10] = molecular target: T1, MtbAdoK; assay: Steady-state kinetics of MtbAdoK; settings: versus adenosine

T1 sequence (P9WID5 whole entry, looked up): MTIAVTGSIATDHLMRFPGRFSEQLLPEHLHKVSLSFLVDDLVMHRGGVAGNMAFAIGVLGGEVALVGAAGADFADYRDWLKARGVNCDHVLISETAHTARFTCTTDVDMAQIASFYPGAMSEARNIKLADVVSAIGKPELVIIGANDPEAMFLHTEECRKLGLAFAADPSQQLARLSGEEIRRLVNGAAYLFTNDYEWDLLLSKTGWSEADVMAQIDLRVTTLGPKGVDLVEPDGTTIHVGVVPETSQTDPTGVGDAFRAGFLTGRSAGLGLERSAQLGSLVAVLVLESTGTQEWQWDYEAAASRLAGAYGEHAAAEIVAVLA

Nc1ncnc2c1ncn2[C@@H]1O[C@H](CO)[C@@H](O)[C@H]1O [Compound 1, adenosine]
Km [1]: 0.8 to 3.4 µM

Nc1ncnc2c1c(I)cn2[C@@H]1O[C@H](CO)[C@@H](O)[C@H]1O [Compound 2, Iodotubercidin]
MIC [2]: 18 ± 10 µM (≈ 7.06 µg/mL)

OC[C@H]1O[C@@H](n2cnc3c(-c4ccsc4)ncnc32)[C@H](O)[C@@H]1O [Compound 6]
EC50 [3]: 25.6 ± 2.4 µM | CC50 [4]: > 100 µM | IC50 ([5]; 15.0 μM adenosine, 60 nM enzyme): 0.197 ± 0.0203 µM | increase in potency when compared with compounds 2 and 4 ([5]; MtbAdoK IC50 ratio): ~10 ×

OC[C@H]1O[C@@H](n2cnc3c(N4CCN(c5ccc(-c6ccccc6)cc5)CC4)ncnc32)[C@H](O)[C@@H]1O [Compound 18, (2R,3R,4S,5R)-2-(6-(4-([1,1′-Biphenyl]-4-yl)piperazin-1-yl)-9H-purin-9-yl)-5-(hydroxymethyl)tetrahydrofuran-3,4-diol]
activity against hAdoK (in words) [6]: no activity against hAdoK | Ki ([6]; Cheng–Prusoff, ± SD of 2 experiments): > 50 µM | AUC(0-t) ([7]; 10 mg/kg): 1800 ng·h/mL | Cmax ([7]; 10 mg/kg): 130 ± 20 ng/mL | Tmax ([7]; 10 mg/kg): ~4 h | AUC ([7]; 50 mg/kg): 9800 ng·h/mL | Tmax ([7]; 50 mg/kg): ~4 h | AUC ([7]; 100 mg/kg): 15300 ng·h/mL | Tmax ([7]; 100 mg/kg): ~4 h | AUC ([7]; 200 mg/kg): 23200 ng·h/mL | Tmax ([7]; 200 mg/kg): ~4 h | tolerability [8]: well tolerated | EC50 ([3]; 192 h): ~4 µM | EC50 [3]: 4 ± 0.2 µM | cytotoxicity (in words) [9]: no cytotoxicity | Ki ([5]; Cheng–Prusoff for competitive inhibition, 15.0 μM adenosine, ± SD of 2 experiments): 0.0053 ± 7e-05 µM | mode of inhibition [10]: competitive
